# Literature values as cited in patent US20210402001A1, “Zinc Porters, and their Monoclonal Antibody Conjugates, for the Prevention and Treatment of COVID-19 (SARS-CoV-2), Other Infections, and Cancers” (priority 2020, published 2021).
# Legend:
# blood platelets = details: healthy individuals, single oral dose of 220 mg
# [1] = intranasal
# [2] = oxidized HDEFA5
# trypsin = details: reduced state, five trypsin cleavage sites
Compound,platelet activity (blood platelets),loss of smell (anosmia) [1],Zn dissociation constant [2],degradation by gut trypsin (trypsin)
O=S(=O)([O-])[O-].[Zn+2] [Zn sulfate],hyperactive,profound acute anosmia,–,–
ATCYCRTGRCATRESLSGVCEISGRLYRLCCR [HDEFA5],–,–,picomolar,rapidly degraded
